Experiments:
[1] = tested on: ornithine decarboxylase (ODC); conditions: qualitative; cited from earlier work
[2] = tested on: ornithine decarboxylase (ODC); test: Inhibition of TPA induction of ornithine decarboxylase (ODC) (Table 2); assay type: cell-based; conditions: concentration which results in 80 per cent inhibition of the ODC induction activity by TPA
From the text: The retinoid-like activity of these compounds is confirmed through the classic measure of retinoic acid activity involving the effects of retinoic acid on ornithine decarboxylase. The original work on the correlation between retinoic acid and decrease in cell proliferation was done by Verma & Boutwell, Cancer Research, 1977, 37,2196-2201. That reference discloses that ornithine decarboxylase (ODC) activity increased precedent to polyamine biosynthesis. It has been established elsewhere that increases. in polyamine synthesis can be correlated or associated with cellular proliferation. Thus, if ODC activity could be inhibited, cell hyperproliferation could be modulated. […] IC80 is that concentration of the test compound (expresed in nanomolar (nmol)) which results in 80 per cent inhibition of the ODC induction activity by TPA.

| Compound | IC80 [2] [nM] | also measured |
| --- | --- | --- |
| CCCCCCCCCCCCCC(=O)O[C@@H]1[C@@H](C)[C@@]2(O)[C@@H](C=C(CO)C[C@]3(O)C(=O)C(C)=C[C@@H]23)[C@@H]2C(C)(C)[C@]12OC(C)=O [12-0-tetradecanoylphorbol-13-acetate] | – | induction of ODC activity [1]: induces ODC activity |
| CCOC(=O)c1ccc(C#Cc2ccc3c(c2)C(C)(C)CC(=O)N3C(C)C)cc1 [Compound 5] | 6.4 | – |
| CCOC(=O)c1ccc(C#Cc2ccc3c(c2)C(C)(C)CC(OC(C)C)=N3)cc1 [Compound 6, Ethyl 4-[(4,4-dimethyl-2-isopropoxy-3,4-dihydro-6-quinolinyl)ethynyl]benzoate] | > 100 | – |
| CCOC(=O)c1ccc(C#Cc2ccc3c(c2)C(C)(C)CC(=S)N3C(C)C)cc1 [Compound 7, Ethyl 4-[(4,4-dimethyl-2-thio-1,2,3,4-tetrahydro-1-iso-propyl-6-quinolinyl)ethynyl]benzoate] | 5.5 | – |
| CCOC(=O)c1ccc(C#Cc2ccc3c(c2)C(C)(C)CC(=S)N3)cc1 [Compound 8, Ethyl 4-[(4,4-dimethyl-2-thio-1,2,3,4-tetrahydro-6quinolinyl)ethynyl]benzoate] | 54 | – |
| CCOC(=O)c1ccc(C#Cc2ccc3c(c2)C(C)(C)CC(SC)=N3)cc1 [Compound 9, Ethyl 4-[(4,4-dimethyl-2-methylthio-3,4-dihydro-6-quinolinyl)ethynyl]benzoate] | 29 | – |
| CCCCCCCSC1=Nc2ccc(C#Cc3ccc(C(=O)OCC)cc3)cc2C(C)(C)C1 [Compound 10, Ethyl 4-[(4,4-dimethyl-2-heptylthio-3,4-dihydro-6-quinolinyl)ethynyl]benzoate] | > 60 | – |
| CC1=C(/C=C/C(C)=C/C=C/C(C)=C/C(=O)O)C(C)(C)CCC1 [Retinoic acid] | – | inhibition of TPA induction of ODC activity [1]: inhibits this induction of ODC activity by TPA |
